Reference: patent US20150135343A1, “GTP Sensors” (The Board of Regents of the University of Texas System, priority 2012, published 2015)

How the values were obtained:
[1] = target: T1, AF/FA GTP sensor (mAmetrine 1.1 and E. coli FeoB-cpYFP fusion) 11A variant 12, P12G, GNSGKTT (SEQ ID NO: 7) (Escherichia coli, UniProt P33650, P12G); experiment: GTP binding analysis, fluorescence titration, sensor 12
T1 construct: modified pET32, His-tag/NiNTA, E. coli BL21(DE3)
Protocol: (§1) Expression and purification: The FA/AF11A protein construct in a modified pET32 vector was used to transform BL21 (DE3) cells. Protein expression was induced with IPTG at a final concentration of 1 mM when the cell OD600 reached 0.6-0.8. Cells were grown for a further 12-14 hrs at 30° C. overnight. Cells were harvested in the morning, suspended in 50 mM TrisHCl, pH 8.3, 2 mM NaCl, 0.1% (v/v) Tween-20, 10 mM imidazole, 1 mM PMSF (lysis buffer), and lysed by sonication. Cell debris was removed by spinning at 17000 rpm for 30 minutes at 4° C. in a Sorvall RC-5C centrifuge equipped with a SS-34 rotor. The lysate, which is bright yellow, was applied to a NiNTA column equilibrated with the same lysis buffer. The loaded NiNTA column was washed with 5 volumes of the lysis buffer followed by 2-volumes of 50 mM TrisHCl, pH8.3, 400 mM NaCl, 50 mM imidazole. Then the protein was eluted in 2 volumes of 50 mM TrisHCl, pH 7.5, 100 mM NaCl, 300 mM imidazole. […] Protein concentration was determined with a BCA assay-kit from Invitrogen using bovine serum albumin for the calibration curve.
(§2) Fluorescent emission spectra of FA/AF11A were obtained at ˜1 μM in binding buffer and 3.0 ml in a quartz cuvette. […] Titrations with GTP, GDP, and ATP were carried out in a BioTeK plate reader on 96-well fluorescence plates from Whatman. […]

[2] = target: T2, AF/FA GTP sensor (mAmetrine 1.1 and E. coli FeoB-cpYFP fusion) 11A variant 1217, GNSGKST (SEQ ID NO: 9) (Escherichia coli, UniProt P33650, P12G/T17S); experiment: GTP binding analysis, fluorescence titration, sensor 1217
T2 construct: modified pET32, His-tag/NiNTA, E. coli BL21(DE3)
Protocol: as §1, §2

[3] = target: T3, AF/FA GTP sensor (mAmetrine 1.1 and E. coli FeoB-cpYFP fusion) 11A variant Triple, GNAGKST (SEQ ID NO: 10) (Escherichia coli, UniProt P33650, P12G/S14A/T17S); experiment: GTP binding analysis, fluorescence titration, sensor Triple
T3 construct: modified pET32, His-tag/NiNTA, E. coli BL21(DE3)
Protocol: as §1, §2

[4] = target: T4, AF/FA GTP sensor (mAmetrine 1.1 and E. coli FeoB-cpYFP fusion) 11A variant 1214, P12G+S14A, GNAGKTT (SEQ ID NO: 8) (Escherichia coli, UniProt P33650, P12G/S14A); experiment: GTP binding analysis, fluorescence titration, sensor 1214
T4 construct: modified pET32, His-tag/NiNTA, E. coli BL21(DE3)
Protocol: as §1, §2

[5] = system: FeoB, G-protein domain of FeoB protein from Escherichia coli, SEQ ID NO:3; details: cited from earlier work
[6] = system: HEK293 cells transfected with AF-AAA GTP sensor; experiment: MPA treatment of HEK293 cells expressing AF-AAA sensor, ratiometric imaging; assay type: cell-based; details: 20 μM MPA, 20 hrs; GTP-insensitive control sensor
Protocol: (§3) AF/FA GTP sensors were subcloned into a pGW1 mammalian cell expression vector with a cytomegalovirus (CMV) promoter. HEK293 cells were transfected with the plasmid DNA using the GenJet (SignaGen) transfection reagent according to the manufacturer's instructions. Cells were allowed to grow for ˜24 hrs before being treated with mycophenolic acid (MPA), which inhibits GTP synthesis. Cells were imaged 20 hrs after drug administration. All cell cultures were carried out with DMEM containing 10% FBS and penicillin/streptomycin and grown at 37° C. in an atmosphere with 5% CO2. Passage number of cells was less than 30 for all experiments.
(§4) Imaging: Cells were imaged in a LabTek 8-chamber 1.5 coverslip-bottom culture-cum-imaging wells. Nikon Eclipse inverted epifluorescence microscope with Sedat Quad 89000 (Chroma Tech) filter along with Sutter instruments automated filter wheel controls was used for all imaging purposes. To ensure adequate signal, 2×2 binning was used. […]
(§5) Images were obtained individually without using the Nikon NIS software ratiometric collection mode. All image quantitative analyses were carried out with the public domain ImageJ (http://rsbweb.nih.gov/ij/) in conjunction with MS Excel and Origin 7. […] Then the ratios of the two intensities were calculated along with the relevant statistics.

HEK293 cells = experiment: In vivo validation: ratiometric imaging of transfected HEK293 cells with or without MPA; assay type: cell-based; details: 20 μM MPA, HEK293 cells with AF-Triple sensor
Protocol: as §3, §4, §5

[7] = system: HEK293 cells transfected with AF-Triple GTP sensor; experiment: MPA treatment of HEK293 cells expressing AF-Triple sensor, ratiometric imaging; assay type: cell-based; details: 20 μM MPA
Protocol: as §3, §4, §5

[8] = target: T5, 5a5a-GTP sensor (E. coli FeoB-cpYFP fusion), 5a5a-WT, SEQ ID NO:14 (Escherichia coli, UniProt P33650, E42P/INS38[…]); experiment: Effective dissociation constant (Keff) determination, 5a5a-WT; assay type: binding; details: FIG. 7 and FIG. 8
T5 construct: made in house
Text: DNA encoding a cpYFP was inserted into the DNA encoding residues 35-40 of the FeoB G-protein domain (residues 1-260). Six insertion sites—spaced one codon apart—and 4 combinations of linker lengths between the N- and C-termini of the cpYFP and FeoB genes were used to construct 24 different fusion proteins. Nomenclature followed the form “FY1a-1a”, were the number designates the cpYFP insertion site, with “1” corresponding to insertion after FeoB residue 35 and “6” to insertion after residue 40, and where an “a” after the number indicates the presence of a ser-ala-gly or gly-thr linker at, respectively, the N- or C-terminus of the cpYFP.
The fluorescence from the GTP insensitive protein provided a way to normalize the GTP-sensitive fluorescent signal. […] The ratio of the fluorescence at these two excitation wavelengths is therefore internally normalized for changes in sensor expression levels. In addition, using a single FP provides certain advantages over a 2-FP sensor: (1.) A single FP sensor still generates a ratiometric signal because the binding of GTP causes a […] in fluorescence when excited at longer wavelengths (˜500 nm) but a […] in when excited at shorter (˜400 nm) wavelengths. […] (3.) The change in fluorescence ratio varies from 2-6 fold, depending on pH. […]

**Q.** Which results are given for `Nc1nc2c(ncn2[C@@H]2O[C@H](COP(=O)(O)OP(=O)(O)O)[C@@H](O)[C@H]2O)c(=O)[nH]1` [GDP]?
**A.** Kd [1]: 382 µM; Kd [2]: ~650 µM; Kd [3]: ~1000 µM; Kd [4]: 525 µM; rate of GDP release ([5]; 35° C., too fast to measure by stop-flow methods, estimated): > 1000 s⁻¹

**Q.** With `Nc1nc2c(ncn2[C@@H]2O[C@H](COP(=O)(O)OP(=O)(O)OP(=O)(O)O)[C@@H](O)[C@H]2O)c(=O)[nH]1` [GTP, guanosine triphosphate] as the compound, how does the Kd [1] read?
**A.** Its Kd is 85 µM.

**Q.** What about the Kd [2] of the same compound?
**A.** The Kd was 275 µM.

**Q.** What about the Kd [3] of the same compound?
**A.** The Kd was 517 µM.

**Q.** What about the Kd [4] of the same compound?
**A.** Its Kd is 177 µM.

**Q.** What about the “off-rate (GTP)” value ([5]; 35° C.) of the same compound?
**A.** The value was 12 s⁻¹.

**Q.** What about the “on-rate for GTP” value ([5]; 35° C.) of the same compound?
**A.** Its value is 800000 M⁻¹ s⁻¹.

**Q.** And the “rate of GTP hydrolysis” value [5]?
**A.** Its value is 0.0015 s⁻¹.

**Q.** What about the “rate of GTP hydrolysis, fold slower than the rate of GTP release” value ([5]; ratio) of the same compound?
**A.** Its value is “about 5000 fold”.

**Q.** Which “effect of MPA treatment on ratiometric signal” value [6] does the source give for `COc1c(C)c2c(c(O)c1C/C=C(\C)CCC(=O)O)C(=O)OC2` [MPA, mycophenolic acid] here?
**A.** The value was “no effect”.

**Q.** And the “cpYFP (green) signal of cells vs untreated” value (HEK293 cells)?
**A.** The value was “brighter green hue”.

**Q.** What about the “effect of MPA treatment on ratiometric signal (distribution of ratio and average value)” value ([7]; 20 hrs, p-value of 0.005) of the same compound?
**A.** Its value is “distinct difference in the distribution of the ratio as well as the average value”.

**Q.** What about the “GTP-sensitive signal (cpYFP green) after MPA treatment” value ([7]; signal inversely related to GTP concentration) of the same compound?
**A.** Its value is “brighter green hue than those untreated”.

**Q.** For `Nc1nc2c(ncn2[C@H]2C[C@H](O)[C@@H](COP(=O)(O)OP(=O)(O)OP(=O)(O)O)O2)c(=O)[nH]1` [dGTP], which “binding of dGTP relative to GTP” value [8] is on record?
**A.** Its value is “as well as, if not slightly better than GTP itself”.
